Measured values published in patent US10711036B2, “MALT1 inhibitors and uses thereof” (Cornell University, priority 2015, dated 2020).
Where a SMILES comes first, the peptide text is derived from it. [ ]: non-standard residue; d: D form. The star is where a group is joined. NMeV = CN[C@H](C(=O)O)C(C)C; Cbz = O=C(OCc1ccccc1)*; CH2F = FC*

Columns and labels:
[1] = target: T1, MALT1 (Homo sapiens (Human), UniProt Q9UDY8); assay: Inhibition constants (Ki) for inhibition of MALT1; assay type: biochemical; settings: 100 nM MALT1 used for the assay
Method: For exemplary compounds of the disclosure, Ki for inhibition of MALT1 was measured (Table E11). A concentration of 100 nM MALT1 was used for the assay.

[2] = tested on: OCI-LY3; assay: Cell growth inhibition assay (CellTiter-Glo, 96 hours), OCI-LY3; assay type: cell-based, human; settings: Homo sapiens, OCI-LY3 cells, treated at t=0 and t=48 hours, ATP luminescence
Method: DLBCL cell lines were grown in exponential growth conditions during the 96 hours of treatment. Cells were treated twice: at t=0 and t=48 hours, and cell viability was determined by ATP quantification using a luminescent method ([…]-GLO, Promega, Madison, Wis.). Cell viability in drug-treated cells was normalized to vehicle controls (fractional viability) and results are given as 1-fractional viability.
Experiments were Performed in Triplicate.

[3] = tested on: OCI-LY3; assay: Maximum killing effect on OCI-LY3; assay type: cell-based, human
Method: (§1) The maximum killing effects on cell-lines OCI-LY3, TMD8, and OCI-LY1 were also measured for select compounds at inhibitor concentration of 20 μM and 5 μM. TMD8 is another line of ABC type diffuse large-B cell lymphoma, while OCI-LY1 is a DLBCL line of the germinal center B-cell subtype.

[4] = tested on: TMD8; assay: Maximum killing effect on TMD8; assay type: cell-based
Method: as §1

[5] = tested on: OCI-LY1; assay: Maximum killing effect on OCI-LY1; assay type: cell-based
Method: as §1

[6] = target: T1, MALT1; assay: X-ray co-crystal structure of compound and MALT1; assay type: binding; settings: 2.0 angstrom resolution
Method: Compound 101 was incubated with MALT1 to form a complex, and the complex was purified and crystallized for structure determination. X-ray diffraction data was collected, and the compound 101-MALT1 structure was solved in 2.0 angstrom resolution. […] Exemplary evidence for the formation of the covalent bond is the existence of continuous electron density from compound 101 to the Cys464 residue of MALT1. The electron density is 2Fo−Fc map contoured at 1.0 sigma.

[7] = tested on: RelB cleavage; assay: Western blot for RelB cleavage in OCI-LY3 cells; assay type: cell-based, human; settings: OCI-LY3 cells pretreated with inhibitor, then 5 μM MG-132 for 2 hours
Method: FIG. 1A. Western blots for RelB and MALT1 after 30 minutes pretreatment with indicated doses of compounds or vehicle, followed by proteasome inhibitor MG-132 (5 μM) treatment for 2 hours in OCI-LY3. clev=cleavage product of RelB.
FIG. 1B. Western blots for RelB with indicated doses of compounds or vehicle in OCI-LY3.
Western blot: OCI-Ly3 cells (a line of human diffuse large B-cell lymphoma (ABC type)) were pre-treated for 30 minutes with indicated doses of MALT1 inhibitors followed by a 2-hour treatment with proteasome inhibitor MG-132 at 5 μM. Protein was then extracted in a PBS-based lysis buffer containing 1% NP-40. Equal amounts of total protein (50 to 75 μg) were separated on sodium dodecyl sulfate-polyacrylamide gel electrophoresis (SDS-PAGE), and electrotransferred onto nitrocellulose membranes. Membranes were incubated with primary antibodies (MALT1, from Santa Cruz Biotechnologies, Santa Cruz, Calif.; RELB from Cell Signaling, Danvers, Mass., and α-Tubulin from Sigma), followed by secondary antibodies conjugated to horseradish peroxidase, which were detected by chemiluminescence (Pierce, Thermo Scientific, Rockford, Ill.).
OCI-LY3 cells were pretreated with the an inhibitor at the desired concentration and subsequently treated with 5 μM MG-132, a proteasome inhibitor, for 2 hours.

T1 sequence (Q9UDY8 whole entry): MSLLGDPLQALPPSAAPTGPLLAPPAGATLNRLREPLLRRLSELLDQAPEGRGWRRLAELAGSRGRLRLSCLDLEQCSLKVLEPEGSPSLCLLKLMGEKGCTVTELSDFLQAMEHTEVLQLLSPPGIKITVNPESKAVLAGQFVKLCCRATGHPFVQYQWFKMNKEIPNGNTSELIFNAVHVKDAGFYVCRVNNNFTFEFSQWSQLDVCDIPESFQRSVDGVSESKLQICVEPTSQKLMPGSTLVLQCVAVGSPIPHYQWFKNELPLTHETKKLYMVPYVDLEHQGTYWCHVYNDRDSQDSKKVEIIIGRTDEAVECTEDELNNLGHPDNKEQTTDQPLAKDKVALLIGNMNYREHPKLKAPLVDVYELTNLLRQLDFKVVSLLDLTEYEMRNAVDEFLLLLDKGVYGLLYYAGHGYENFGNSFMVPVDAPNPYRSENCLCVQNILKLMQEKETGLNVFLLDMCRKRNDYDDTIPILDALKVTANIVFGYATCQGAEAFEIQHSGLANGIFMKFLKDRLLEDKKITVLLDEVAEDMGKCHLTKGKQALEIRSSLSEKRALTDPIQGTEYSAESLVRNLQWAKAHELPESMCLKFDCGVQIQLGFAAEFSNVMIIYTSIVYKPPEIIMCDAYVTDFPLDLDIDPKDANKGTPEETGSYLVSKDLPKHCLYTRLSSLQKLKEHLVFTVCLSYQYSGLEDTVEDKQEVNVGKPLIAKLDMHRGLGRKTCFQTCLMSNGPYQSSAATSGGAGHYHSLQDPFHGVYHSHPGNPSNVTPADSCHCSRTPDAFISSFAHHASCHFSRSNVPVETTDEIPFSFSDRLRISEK

| Ki [1] | GI50 [2] | Covalent bond to Cys464 of MALT1 in co-crystal structure [6] | SMILES | Maximum killing effect ([3]; OCI-LY3, 5 μM) | Maximum killing effect ([3]; OCI-LY3, 20 μM) | Maximum killing effect ([4]; TMD8, 5 μM) | Maximum killing effect ([4]; TMD8, 20 μM) | Maximum killing effect ([5]; OCI-LY1, 5 μM) | Maximum killing effect ([5]; OCI-LY1, 20 μM) | Inhibition of RelB cleavage (Western blot) [7] |
| --- | --- | --- | --- | --- | --- | --- | --- | --- | --- | --- |
| 40 nM | 8520 nM | formation of a covalent bond | CC(C)[C@H](NC(=O)OCc1ccccc1)C(=O)N1CCC[C@H]1C(=O)N[C@@H](CCCNC(=N)N)C(=O)CF [Compound 101, Benzyl ((S)-1-((S)-2-(((S)-1-fluoro-6-guanidino-2-oxohexan-3-yl)carbamoyl)pyrrolidin-1-yl)-3-methyl-1-oxobutan-2-yl)carbamate 2,2,2-trifluoroacetate] (Cbz-Val-Pro-Arg-CH2F) | 70% | 79% | 50% | 63% | <0% | 7% |  |
| 808 nM | > 20000 nM |  | CC(C)[C@@H](C(=O)N1CCC[C@H]1C(=O)N[C@@H](CCCNC(=N)N)C(=O)CF)N(C)C(=O)OCc1ccccc1 [Compound 112] (Cbz-[NMeV]-Pro-Arg-CH2F) | 28% | 51% |  | 66% | 5% | 2% | inhibition of RelB cleavage |
| 10 nM | 130 nM |  | CC(C)[C@H](NC(=O)c1ccc(Br)cc1)C(=O)N1CCC[C@H]1C(=O)N[C@@H](CCCNC(=N)N)C(=O)CF [Compound 116] |  | 90% |  | 76% |  | 19% | inhibition of RelB cleavage |
